# Test results reported in article PMC3204379 (Journal of molecular biology, 2011).
# Biological target: PtpA (Staphylococcus aureus, UniProt P0C5D2)
# Assay: phosphatase activity
# Format: biochemical
# Details: artificial substrate; conditions not given
# Chain of PtpA (P0C5D2 whole entry): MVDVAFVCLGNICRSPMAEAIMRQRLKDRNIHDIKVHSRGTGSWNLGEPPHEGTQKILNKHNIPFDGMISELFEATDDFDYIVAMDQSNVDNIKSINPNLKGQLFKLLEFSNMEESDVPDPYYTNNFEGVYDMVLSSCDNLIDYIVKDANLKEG
smiles,measurement,value
O=[N+]([O-])c1ccc(OP(=O)(O)O)cc1 [para-nitrophenol phosphate],phosphatase activity (data not shown),activity of PtpA with the artificial phosphatase substrate para-nitrophenol phosphate
